# Reference: PMC3029310 (Journal of Insect Science, 2010)
# Tested on: T1, AChE
# T1 construct: gene ace1; native; newly emerged adult males for these rows
# Test: Ellman assay (DTNB, […] nm), […] substrate concentrations […]
# Assay type: biochemical, Blattella germanica
# Conditions: newly emerged adult males; pH 7.5; 30 °C
compound,measurement,value
CC(=O)SCC[N+](C)(C)C [Acetylthiocholine iodide],Km,340 ± 49 µM
